What was measured:
[1] = tested on: Kras mutant mice, total lung and tumor infiltrating immune cells; test: Immune cell analysis of lungs of Kras mutant mice treated with the arginase inhibitor; format: in vivo, mouse; conditions: 30 mg/kg once daily gavage, 1 week
From the text: (§1) All EGFR transgenic mice carrying tetracycline inducible human EGFR cDNA were previously generated, crossed with CC10-RTTA mice expressing reverse tetracycline activator from lung Clara cell CC10 promoter, and maintained in mixed background. Double positive progeny were fed with doxycycline diet starting at 5-6 weeks of age for the induction of tumors and maintained on doxycyline throughout the study. EGFR and KrasG12D mice were maintained in mixed (C57Bl/6, FVB, and S129) background and given adeno virus expressing Cre recombinase (5×10^6 titer) intranasally at 5 weeks of age for induction of recombination and tumor formation. All breedings and in vivo experiments were performed with the approval of the DFC1 Animal Care and Use Committee.
(§2) The arginase inhibitor (R)-2-Amino-6-borono-2-(2-(piperidin-1-yl)ethyl)hexanoic acid, also known as compound HY-15775/compound 9, was obtained from MedChem Express and is well known in the art (see, for example, Van Zandt et al. (2013) J. Med. Chem. 56:2568-2580). The compound was administered to mice at 30 mg/kg in phosphate-buffered saline (PBS) via oral gavage once daily.
Total lung cell and tumor infiltrating immune cell characterization was performed as described in Akbay et al. (2013) Cancer Discov. 3:1355-1363.

[2] = tested on: lung tumors of Kras^G12D mice; test: MRI lung tumor volume quantification in Kras^G12D mice treated with the arginase inhibitor; format: in vivo, mouse; conditions: 30 mg/kg once daily gavage, 1 week
From the text: as §1, §2
Animals were anesthetized with 1.5-2% isoflurane (IsoFlo; Abbott) in 100% oxygen. […] Tumor volume quantifications were performed using 3D-Slicer software as described in Weaver et al. (2012) Cancer Res. 72:921-933.

N[C@](CCCCB(O)O)(CCN1CCCCC1)C(=O)O [compound 9/HY-15775, (R)-2-Amino-6-borono-2-(2-(piperidin-1-yl)ethyl)hexanoic acid]
CD8 T cells in the total T cell population [1]: increase
CD11c and CD11b myeloid populations [1]: no change
ratio of CD4 T cells in the total T cell population [1]: decrease
ratio of CD8 to FoxP3 cells (cytotoxic T cells to regulatory T cells) [1]: increase
total T cell counts [1]: increase
lung tumor volumes (change compared to baseline, MRI) [2]: decreases

Source: patent publication US11624093B2, “Tumor suppressor and oncogene biomarkers predictive of anti-immune checkpoint inhibitor response” (Dana-Farber Cancer Institute, Inc., priority 2014, dated 2023)
